Laboratory results from patent US6489334B2, “Method for the crystallization of a tetrahydropyridin derivative and resulting crystalline forms” (Sanofi-Synthelabo, priority 1996, dated 2002).

Key:
CACO-2 monolayer = type: in vitro ADME
Experimental: A study concerning the determination of the in vitro absorption of SR 57746 A as a micronized form I/III mixture was carried out using the CACO-2 monolayer model. This test, which is widely used as a predictive intestinal epithelial model for drug absorption (P. Artusson, Crit. Rev. Ther. Drug, 1991, 8: 305-330), made it possible to show significant differences in terms of dissolution and permeability between SR 57746 A as a micronized form I/III mixture and the SR 57746 A obtained according to EP 0 101 381.

[1] = Phase I clinical trials on healthy volunteers; type: in vivo
[2] = preclinical animal pharmacology, toxicology and pharmacokinetic studies; type: in vivo, animals
[3] = tested on: amyotrophic lateral sclerosis; conditions: 2 mg/day; cited from earlier work

Compound | dissolution and permeability after micronization (CACO-2 monolayer) | rates of dissolution and permeability, compared between the two materials (CACO-2 monolayer) | variability in the pharmacodynamic effects [1] | variability in the plasma concentrations [1] | pharmacokinetic studies on animals ([2]; animals) | activity and behavior in animal pharmacology and toxicology tests ([2]; preclinical trials) | clinical outcome in amyotrophic lateral sclerosis patients [3]
Cl.FC(F)(F)c1cccc(C2=CCN(CCc3ccc4ccccc4c3)CC2)c1 [1-[2-(2-naphthyl)ethyl]-4-(3-trifluoromethylphenyl)-1,2,3,6-tetrahydropyridine hydrochloride] | normalized | significantly different | – | – | – | – | –
Cl.FC(F)(F)c1cccc(C2=CCN(CCc3ccc4ccccc4c3)CC2)c1 [SR 57746 A, 1-[2-(2-naphthyl)ethyl]-4-(3-trifluoromethylphenyl)-1,2,3,6-tetrahydropyridine hydrochloride] | – | – | high variability | high variability | constant and reproducible results | constant activity and behavior | proved promising
